Experimental data published in patent US10457691B2, “Macrocyclic kinase inhibitors and uses thereof” (Dana-Farber Cancer Institute, Inc., priority 2014, dated 2019).

How the values were obtained:
Format in all cases: biochemical
[1] = molecular target: MAPKAP-K3 (Homo sapiens, UniProt Q16644); assay: Protein kinase assay ([γ-32P] ATP), MAPKAP-K3; conditions: read-out: Activity of the protein kinase when treated with compound I-1 (% control)
Protocol: (§1) In another set of experiments, the activities of the compounds described herein against various protein kinases were determined according to the methods reported in Hastie et al., Nature Protocols, 2006, 1, 968-971.
(§2) Enzyme dilution buffer. This buffer consisted of 50 mM Tris-HCl, pH 7.5, 0.1 mM EGTA, 1 mg ml^−1 bovine serum albumin and 0.1% (vol/vol) 2-mercaptoethanol.
(§3) 10× concentrated assay buffer. An assay buffer of 500 mM Tris-HCl, pH 7.5, 1 mM EGTA, and 100 mM magnesium acetate was used for assay of a wide variety of protein kinases. In some experiments, other cofactors were included (e.g., calcium ions and calmodulin were included for assay of calcium-calmodulindependent protein kinases).
(§4) 1 mM [γ-^32P] ATP. The specific activity of the [γ-^32P] ATP solution was 1×10^5 to 1×10^6 c.p.m. per nmol depending on what was needed to produce an optimal signal/noise ratio. […] To measure the concentration of ATP, a sample of such a stock solution was diluted to 20 μM, and the absorbance of the diluted sample was measured at 259 nm. The absorbance of a 20-μM stock solution of ATP at 259 nm was about 0.31. […] ATP to produce a radioactivity of 1×10^5 to 1×10^6 c.p.m. per nmol. […]
(§5) 13) Measure radioactivity in the samples by Cerenkov counting (e.g., without liquid scintillation fluid) in a liquid scintillation counter using a “^32P program”. […]

[2] = molecular target: HIPK2 (Homo sapiens, UniProt Q9H2X6); assay: Protein kinase assay ([γ-32P] ATP), HIPK2; conditions: read-out: Activity of the protein kinase when treated with compound I-1 (% control)
Protocol: as §1, §2, §3, §4, §5

[3] = molecular target: IR (Homo sapiens, UniProt P06213); assay: Protein kinase assay ([γ-32P] ATP), IR; conditions: read-out: Activity of the protein kinase when treated with compound I-1 (% control)
Protocol: as §1, §2, §3, §4, §5

[4] = molecular target: MKK1 (Homo sapiens, UniProt Q02750); assay: Protein kinase assay ([γ-32P] ATP), MKK1; conditions: read-out: Activity of the protein kinase when treated with compound I-1 (% control)
Protocol: as §1, §2, §3, §4, §5

[5] = molecular target: CSK (Homo sapiens, UniProt P41240); assay: Protein kinase assay ([γ-32P] ATP), CSK; conditions: read-out: Activity of the protein kinase when treated with compound I-1 (% control)
Protocol: as §1, §2, §3, §4, §5

[6] = molecular target: SmMLCK (Homo sapiens, UniProt Q15746); assay: Protein kinase assay ([γ-32P] ATP), SmMLCK; conditions: read-out: Activity of the protein kinase when treated with compound I-1 (% control)
Protocol: as §1, §2, §3, §4, §5

[7] = molecular target: EPH-B2 (Homo sapiens, UniProt P29323); assay: Protein kinase assay ([γ-32P] ATP), EPH-B2; conditions: read-out: Activity of the protein kinase when treated with compound I-1 (% control)
Protocol: as §1, §2, §3, §4, §5

[8] = tested on: ROCK 2; assay: Protein kinase assay ([γ-32P] ATP), ROCK 2
Protocol: as §1, §2, §3, §4, §5

[9] = molecular target: CK1δ (Homo sapiens, UniProt P48730); assay: Protein kinase assay ([γ-32P] ATP), CK1δ; conditions: read-out: Activity of the protein kinase when treated with compound I-1 (% control)
Protocol: as §1, §2, §3, §4, §5

[10] = molecular target: STK33 (Homo sapiens, UniProt Q9BYT3); assay: Protein kinase assay ([γ-32P] ATP), STK33; conditions: read-out: Activity of the protein kinase when treated with compound I-1 (% control)
Protocol: as §1, §2, §3, §4, §5

[11] = molecular target: EF2K (Homo sapiens, UniProt O00418); assay: Protein kinase assay ([γ-32P] ATP), EF2K; conditions: read-out: Activity of the protein kinase when treated with compound I-1 (% control)
Protocol: as §1, §2, §3, §4, §5

[12] = molecular target: ASK1 (Homo sapiens, UniProt Q99683); assay: Protein kinase assay ([γ-32P] ATP), ASK1; conditions: read-out: Activity of the protein kinase when treated with compound I-1 (% control)
Protocol: as §1, §2, §3, §4, §5

[13] = molecular target: BTK (Homo sapiens, UniProt Q06187); assay: Protein kinase assay ([γ-32P] ATP), BTK; conditions: read-out: Activity of the protein kinase when treated with compound I-1 (% control)
Protocol: as §1, §2, §3, §4, §5

[14] = molecular target: p38g MAPK (Homo sapiens, UniProt P53778); assay: Protein kinase assay ([γ-32P] ATP), p38g MAPK; conditions: read-out: Activity of the protein kinase when treated with compound I-1 (% control)
Protocol: as §1, §2, §3, §4, §5

[15] = molecular target: Lck (Homo sapiens, UniProt P06239); assay: Protein kinase assay ([γ-32P] ATP), Lck; conditions: read-out: Activity of the protein kinase when treated with compound I-1 (% control)
Protocol: as §1, §2, §3, §4, §5

[16] = molecular target: IRAK1 (Homo sapiens, UniProt P51617); assay: Protein kinase assay ([γ-32P] ATP), IRAK1; conditions: read-out: Activity of the protein kinase when treated with compound I-1 (% control)
Protocol: as §1, §2, §3, §4, §5

[17] = molecular target: ERK2 (Homo sapiens, UniProt P28482); assay: Protein kinase assay ([γ-32P] ATP), ERK2; conditions: read-out: Activity of the protein kinase when treated with compound I-1 (% control)
Protocol: as §1, §2, §3, §4, §5

[18] = 0.1 μM of compound I-1, DMSO control = 100%
[19] = 1 μM of compound I-1, DMSO control = 100%

Sequence of CSK (P41240 whole entry): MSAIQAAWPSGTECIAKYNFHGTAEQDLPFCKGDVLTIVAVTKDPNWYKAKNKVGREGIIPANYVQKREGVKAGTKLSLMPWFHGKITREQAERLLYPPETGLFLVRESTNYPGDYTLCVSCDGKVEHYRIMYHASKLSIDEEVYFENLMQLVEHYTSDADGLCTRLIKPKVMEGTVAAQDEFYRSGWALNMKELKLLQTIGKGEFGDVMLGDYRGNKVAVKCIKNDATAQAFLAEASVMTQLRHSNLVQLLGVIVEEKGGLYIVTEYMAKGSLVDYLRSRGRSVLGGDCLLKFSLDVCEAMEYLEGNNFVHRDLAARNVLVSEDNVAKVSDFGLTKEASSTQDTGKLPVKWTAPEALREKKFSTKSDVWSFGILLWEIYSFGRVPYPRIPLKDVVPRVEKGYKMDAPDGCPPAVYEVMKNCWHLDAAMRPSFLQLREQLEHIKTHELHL
Sequence of STK33 (Q9BYT3 whole entry, species assumed): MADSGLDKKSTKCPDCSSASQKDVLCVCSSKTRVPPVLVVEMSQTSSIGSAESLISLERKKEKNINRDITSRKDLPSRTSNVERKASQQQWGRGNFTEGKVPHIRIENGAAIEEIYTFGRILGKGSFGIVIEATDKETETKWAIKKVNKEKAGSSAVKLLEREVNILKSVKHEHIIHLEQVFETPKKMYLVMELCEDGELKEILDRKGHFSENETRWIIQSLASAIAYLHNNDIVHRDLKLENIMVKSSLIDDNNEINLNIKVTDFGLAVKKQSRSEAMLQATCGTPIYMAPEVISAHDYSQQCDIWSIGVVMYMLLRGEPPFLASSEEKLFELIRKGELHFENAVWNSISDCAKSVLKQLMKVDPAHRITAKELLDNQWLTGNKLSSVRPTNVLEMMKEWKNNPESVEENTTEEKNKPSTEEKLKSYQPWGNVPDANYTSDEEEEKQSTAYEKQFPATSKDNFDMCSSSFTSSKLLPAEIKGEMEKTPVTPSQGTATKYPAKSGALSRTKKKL
Sequence of p38g MAPK (P53778 whole entry): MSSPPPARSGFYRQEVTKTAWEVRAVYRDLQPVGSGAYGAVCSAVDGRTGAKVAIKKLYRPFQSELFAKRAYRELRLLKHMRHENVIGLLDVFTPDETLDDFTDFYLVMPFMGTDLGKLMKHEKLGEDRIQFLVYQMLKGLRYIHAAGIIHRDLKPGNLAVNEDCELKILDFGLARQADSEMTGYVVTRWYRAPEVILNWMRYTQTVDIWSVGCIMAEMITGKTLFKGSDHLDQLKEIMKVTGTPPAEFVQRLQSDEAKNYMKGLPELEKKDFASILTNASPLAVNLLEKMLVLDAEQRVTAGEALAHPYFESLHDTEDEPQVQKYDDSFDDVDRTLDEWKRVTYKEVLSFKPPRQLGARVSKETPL
Sequence of SmMLCK (Q15746 923-1914): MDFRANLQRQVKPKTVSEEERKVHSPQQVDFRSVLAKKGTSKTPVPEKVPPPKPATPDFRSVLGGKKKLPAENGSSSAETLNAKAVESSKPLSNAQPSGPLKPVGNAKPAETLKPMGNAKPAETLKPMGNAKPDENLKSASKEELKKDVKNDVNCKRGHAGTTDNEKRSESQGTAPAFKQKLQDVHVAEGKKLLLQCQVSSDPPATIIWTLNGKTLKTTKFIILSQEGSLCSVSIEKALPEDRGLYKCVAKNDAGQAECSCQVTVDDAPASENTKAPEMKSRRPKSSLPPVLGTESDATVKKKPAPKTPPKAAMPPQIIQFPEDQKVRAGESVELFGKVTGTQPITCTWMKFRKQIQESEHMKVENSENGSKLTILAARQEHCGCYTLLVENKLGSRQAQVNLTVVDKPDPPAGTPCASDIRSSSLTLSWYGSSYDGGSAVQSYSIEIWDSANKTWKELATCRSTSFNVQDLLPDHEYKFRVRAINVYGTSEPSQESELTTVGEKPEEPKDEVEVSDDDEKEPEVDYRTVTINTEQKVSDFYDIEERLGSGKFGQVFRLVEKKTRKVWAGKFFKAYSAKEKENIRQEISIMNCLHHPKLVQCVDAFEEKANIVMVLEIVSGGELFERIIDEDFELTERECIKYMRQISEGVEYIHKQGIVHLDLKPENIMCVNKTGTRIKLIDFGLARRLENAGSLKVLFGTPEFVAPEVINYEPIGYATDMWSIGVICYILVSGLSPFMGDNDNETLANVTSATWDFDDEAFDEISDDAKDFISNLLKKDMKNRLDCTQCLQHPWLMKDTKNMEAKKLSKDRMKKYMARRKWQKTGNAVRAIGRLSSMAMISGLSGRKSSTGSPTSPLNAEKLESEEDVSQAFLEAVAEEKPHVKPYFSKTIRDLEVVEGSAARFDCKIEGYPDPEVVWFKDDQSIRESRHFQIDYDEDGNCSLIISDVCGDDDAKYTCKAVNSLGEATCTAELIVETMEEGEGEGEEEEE
Sequence of BTK (Q06187 whole entry): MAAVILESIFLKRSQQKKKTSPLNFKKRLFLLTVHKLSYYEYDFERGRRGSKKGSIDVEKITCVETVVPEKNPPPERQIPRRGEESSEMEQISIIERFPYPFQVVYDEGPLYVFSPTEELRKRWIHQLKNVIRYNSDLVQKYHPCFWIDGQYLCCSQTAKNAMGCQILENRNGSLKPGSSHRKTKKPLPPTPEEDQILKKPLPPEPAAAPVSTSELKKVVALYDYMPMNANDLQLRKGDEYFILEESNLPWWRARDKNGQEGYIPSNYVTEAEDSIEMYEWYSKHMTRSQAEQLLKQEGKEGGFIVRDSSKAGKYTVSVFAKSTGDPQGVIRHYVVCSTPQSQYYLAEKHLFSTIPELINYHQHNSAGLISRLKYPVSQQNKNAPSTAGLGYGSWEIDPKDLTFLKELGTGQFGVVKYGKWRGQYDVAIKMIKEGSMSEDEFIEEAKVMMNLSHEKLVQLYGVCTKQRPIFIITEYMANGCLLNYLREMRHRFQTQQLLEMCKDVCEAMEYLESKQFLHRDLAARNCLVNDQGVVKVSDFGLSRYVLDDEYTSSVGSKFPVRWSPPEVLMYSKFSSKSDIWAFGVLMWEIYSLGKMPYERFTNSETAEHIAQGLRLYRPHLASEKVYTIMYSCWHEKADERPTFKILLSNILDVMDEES
Sequence of EF2K (O00418 whole entry): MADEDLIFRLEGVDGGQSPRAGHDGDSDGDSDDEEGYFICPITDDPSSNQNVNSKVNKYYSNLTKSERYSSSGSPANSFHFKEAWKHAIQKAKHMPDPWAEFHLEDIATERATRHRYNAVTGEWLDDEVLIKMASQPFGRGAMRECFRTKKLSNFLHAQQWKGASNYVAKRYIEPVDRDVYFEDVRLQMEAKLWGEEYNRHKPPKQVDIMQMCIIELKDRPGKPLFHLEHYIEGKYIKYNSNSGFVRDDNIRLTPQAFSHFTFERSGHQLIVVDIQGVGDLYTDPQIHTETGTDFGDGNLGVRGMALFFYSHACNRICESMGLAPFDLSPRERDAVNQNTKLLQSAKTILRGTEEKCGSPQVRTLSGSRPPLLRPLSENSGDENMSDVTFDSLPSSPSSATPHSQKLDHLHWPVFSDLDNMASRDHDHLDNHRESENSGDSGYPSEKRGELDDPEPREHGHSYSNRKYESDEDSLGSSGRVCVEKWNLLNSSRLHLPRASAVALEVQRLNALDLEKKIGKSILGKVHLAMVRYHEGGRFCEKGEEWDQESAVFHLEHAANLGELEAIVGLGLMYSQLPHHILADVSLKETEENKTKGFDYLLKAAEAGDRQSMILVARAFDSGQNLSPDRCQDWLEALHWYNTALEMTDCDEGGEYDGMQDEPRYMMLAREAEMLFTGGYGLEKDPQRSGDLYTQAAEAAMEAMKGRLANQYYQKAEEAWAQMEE
Sequence of ERK2 (P28482 whole entry): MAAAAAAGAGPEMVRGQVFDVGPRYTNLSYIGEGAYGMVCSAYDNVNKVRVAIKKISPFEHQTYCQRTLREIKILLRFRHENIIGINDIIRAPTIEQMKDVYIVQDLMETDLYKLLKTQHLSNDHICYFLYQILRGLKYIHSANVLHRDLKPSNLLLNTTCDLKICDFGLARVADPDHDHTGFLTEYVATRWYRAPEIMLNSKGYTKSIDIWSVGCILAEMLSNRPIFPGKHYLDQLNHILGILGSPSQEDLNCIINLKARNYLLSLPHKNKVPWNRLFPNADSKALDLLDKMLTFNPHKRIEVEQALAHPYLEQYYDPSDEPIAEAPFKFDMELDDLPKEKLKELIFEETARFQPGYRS
Sequence of Lck (P06239 whole entry): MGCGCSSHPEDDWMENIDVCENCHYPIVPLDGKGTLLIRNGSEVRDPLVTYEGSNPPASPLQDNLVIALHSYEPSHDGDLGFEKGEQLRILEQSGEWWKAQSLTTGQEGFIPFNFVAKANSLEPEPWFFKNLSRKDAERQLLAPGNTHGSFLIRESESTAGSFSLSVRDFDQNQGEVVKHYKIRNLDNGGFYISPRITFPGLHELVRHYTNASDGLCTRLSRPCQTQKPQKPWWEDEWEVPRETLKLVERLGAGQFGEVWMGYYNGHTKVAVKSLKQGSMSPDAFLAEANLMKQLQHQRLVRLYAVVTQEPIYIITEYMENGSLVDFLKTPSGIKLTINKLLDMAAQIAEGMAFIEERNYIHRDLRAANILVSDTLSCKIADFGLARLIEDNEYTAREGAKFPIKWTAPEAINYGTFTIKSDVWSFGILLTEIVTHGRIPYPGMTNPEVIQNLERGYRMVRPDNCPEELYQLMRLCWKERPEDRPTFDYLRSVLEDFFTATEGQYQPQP
Sequence of MAPKAP-K3 (Q16644 whole entry): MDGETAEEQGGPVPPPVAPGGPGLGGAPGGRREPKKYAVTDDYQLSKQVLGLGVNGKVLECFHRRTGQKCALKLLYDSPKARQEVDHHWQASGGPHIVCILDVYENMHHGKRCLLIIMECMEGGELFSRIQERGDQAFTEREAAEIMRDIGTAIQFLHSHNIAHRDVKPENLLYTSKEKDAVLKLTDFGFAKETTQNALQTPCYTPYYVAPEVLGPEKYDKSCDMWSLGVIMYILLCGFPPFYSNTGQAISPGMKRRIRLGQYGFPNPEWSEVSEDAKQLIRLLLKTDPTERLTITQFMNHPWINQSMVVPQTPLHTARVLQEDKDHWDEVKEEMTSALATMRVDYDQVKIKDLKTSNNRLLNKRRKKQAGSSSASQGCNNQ

## Cc1cccc(C)c1NC(=O)N1C/C=C\COc2cccc(c2)Nc2cc1ncn2 [Compound I-1]
[1]; [18]
  remaining activity at 0.1 µM: 108%
[1]; [19]
  remaining activity at 1 µM: 89%
[2]; [18]
  remaining activity at 0.1 µM: 110%
[2]; [19]
  remaining activity at 1 µM: 91%
[3]; [18]
  remaining activity at 0.1 µM: 102%
[3]; [19]
  remaining activity at 1 µM: 93%
[4]; [18]
  remaining activity at 0.1 µM: 96%
[4]; [19]
  remaining activity at 1 µM: 81%
[5]; [18]
  remaining activity at 0.1 µM: 101%
[5]; [19]
  remaining activity at 1 µM: 10%
[6]; [18]
  remaining activity at 0.1 µM: 91%
[6]; [19]
  remaining activity at 1 µM: 85%
[7]; [18]
  remaining activity at 0.1 µM: 54%
[7]; [19]
  remaining activity at 1 µM: 1%
[8]; [18]
  Activity of the protein kinase when treated with compound I-1 (% control): 95 % control
[8]; [19]
  Activity of the protein kinase when treated with compound I-1 (% control): 91 % control
[9]; [18]
  remaining activity at 0.1 µM: 97%
[9]; [19]
  remaining activity at 1 µM: 99%
[10]; [18]
  remaining activity at 0.1 µM: 116%
[10]; [19]
  remaining activity at 1 µM: 100%
[11]; [18]
  remaining activity at 0.1 µM: 103%
[11]; [19]
  remaining activity at 1 µM: 83%
[12]; [18]
  remaining activity at 0.1 µM: 117%
[12]; [19]
  remaining activity at 1 µM: 96%
[13]; [18]
  remaining activity at 0.1 µM: 46%
[13]; [19]
  remaining activity at 1 µM: 48%
[14]; [18]
  remaining activity at 0.1 µM: 101%
[14]; [19]
  remaining activity at 1 µM: 88%
[15]; [18]
  remaining activity at 0.1 µM: 4%
[15]; [19]
  remaining activity at 1 µM: 3%
[16]; [18]
  remaining activity at 0.1 µM: 105%
[16]; [19]
  remaining activity at 1 µM: 83%
[17]; [18]
  remaining activity at 0.1 µM: 104%
[17]; [19]
  remaining activity at 1 µM: 80%
